Source: patent US20250186423A1, “METHODS OF TREATING CANCER AND OTHER CONDITIONS WITH A MU OPIOID RECEPTOR ANTAGONIST” (priority 2022, published 2025)

Assays:
[1] = system: Human umbilical vein endothelial cells (HUVEC); test: HUVEC cell tube formation; format: cell-based; details: 0-1000 nM, 18 hours, absence of exogenous opioids
Experimental: Two independent model systems were used to explore the role of MOR and endogenous opioids on angiogenesis. Human umbilical vein endothelial cells (HUVEC) in culture initiate angiogenesis through tube formation when cultured on an appropriate extracellular matrix. In a living system, the chicken egg chorioallantoic membrane assay (CAM) allows direct visualization of new blood vessel formation.
Specifically, the HUVEC cell tube formation was assessed in the presence of various doses (0-1000 nM) of three different Mu opioid receptor antagonists (axelopran, naloxegol, and methylnaltrexone (MNTX)). For this testing, the HUVEC cells were exposed to the various MOR antagonist concentrations and incubated under the following conditions: Briefly, 50 μL of Matrigel in 96 well plates was loaded to make one layer of extracellular matrix. The plate was kept for 1 hour at 37° C. HUVEC cells were seeded on top of Matrigel (0.02×10^6 cells/well) and waited for 4 h to form tube formation. […] Once tubes formed, cells were treated with increasing amounts of the test compounds (axelopran, naloxegol, and MNTX) and incubated for 18 hours. Cells were stained with Calcein AM and images were captured. The data analysis was performed using NIH imageJ software. Tube length was measure and data was plotted using prism software.

[2] = system: human microvascular endothelial cells; details: Feng et al. BMC Anesthesiol (2021); cited from earlier work
[3] = system: MDA-MB-231 tumor cell line; test: Breast cancer tumor progression in the CAM assay; format: in vivo, chicken; details: 5 days of growth in the upper CAM; axelopran 1.0 mg/kg, pembrolizumab 2.5 mg/kg, bevacizumab 4 mg/kg
Experimental: The chicken egg chorioallantoic membrane assay (FIG. 3B) allows for the study of tumor progression of injected tumor cells in the presence of active endogenous immune surveillance, but again in the absence of an active gut microbiome.
Breast cancer cell tumor progression was assessed in the chicken egg, chorioallantoic membrane assay. The experimental timing is shown below in FIG. 9. Fertilized chicken eggs were incubated for 9 days. The MDA-MB-231 tumor cell line was cultivated in D-MEM medium supplemented with 10% FBS and 1% penicillin/streptomycin. On day E9, cells were detached with trypsin, washed with complete medium and suspended in graft medium. An inoculum of 1×10^6 cells was added onto the CAM of each egg (E9) and then eggs were randomized into groups. Tumor cells (breast cancer MDA-MB231 cells (10^6)) were then seeded on the upper CAM and further incubated for 3 three days. Test agents were then added to the same site at selected concentrations. Following five days of further incubation the growing tumor was excised, freed of CAM tissue, and weighed.
For this testing, the chicken eggs were treated with: axelopran; pembrolizumab (Pembro); axelopran+pembrolizumab; bevacizumab (Beva); axelopran+bevacizumab; pembrolizumab+bevacizumab; and axelopran+pembrolizumab+bevacizumab. Axelopran was used at dose of 1.0 mg/kg; pembrolizumab was used at a dose of 2.5 mg/kg; and bevacizumab was used at a dose of 4 mg/kg. The results of this testing are shown in FIG. 10A, 10B, 11 and Table 2-2.

M-001 melanoma cells = test: Melanoma tumor progression in Zebra fish larvae; format: in vivo, zebrafish; details: Pembro +TILS, no axelopran, 72 hours of growth
Experimental: Zebra fish larvae (FIG. 3A) allow direct visualization of injected tumor cell growth and metastasis (collectively tumor progression) using fluorescently label tumor cells. At this developmental stage both the zebra fish immune system and gut microbiome are immature or lacking. Co-injection of exogenous tumor infiltrating lymphocytes (ex-TILS) allows the separate study of immune surveillance in the absence of a microbiome.
(§1) The toxicity screening period covered the first 72 hours of development. The efficacy evaluation of Axelopran was made using M-001 melanoma cells and matching TILs. Two-day old zebrafish embryos were subcutaneously injected into the perivitelline space with approximately 700 M-001 cells labelled with Dil red fluorescent dye and intravenously injected with TILs with or without pembrolizumab antibody. At the same time, MOR-antagonist test doses were added to the water. Following an additional 72 hours of further development, the fish were assayed for tumor growth (size of original tumor implant) and metastasis disseminated to the distal caudal venous plexus (CVP) three days after implantation.
The testing described above was repeated studying the effects of various doses of axelopran (0, 50 nM, 100 nM, 500 nM, and 1000 nM) alone, pembrolizumab alone, or pembrolizumab in combination with axelopran. The results of this testing are shown in FIG. 7, which depicts a summary of melanoma tumor progression (tumor size×#metastasis) in the presence of increasing axelopran concentrations or the checkpoint inhibitor pembrolizumab. For experiments using pembrolizumab, exogenous tumor-infiltrating lymphocytes (TILs) were also injected. The additional controls included the effect of TILs alone and with axelopran (500 nM) and pembrolizumab and TILs alone and with axelopran (500 nM). *=<0.05, **=<0.005, ***=<0.0005.

Zebra fish larvae = Zebra fish larvae mortality in combination therapy study; format: in vivo, zebrafish; details: TILs plus pembrolizumab
Experimental: as §1
For study investigating combination therapy, the Zebra fish larvae mortality was also investigated.

## C[N@+]1(CC2CC2)CC[C@]23c4c5ccc(O)c4O[C@H]2C(=O)CC[C@@]3(O)[C@H]1C5 [methylnaltrexone]
[1]
  angiogenesis (HUVEC cell tube formation): inhibit angiogenesis

## C=CCN1CC[C@]23c4c5ccc(O)c4O[C@H]2[C@@H](OCCOCCOCCOCCOCCOCCOCCOC)CC[C@@]3(O)[C@H]1C5 [naloxegol]
[1]
  angiogenesis (HUVEC cell tube formation): inhibit angiogenesis

## C=CCN1CC[C@]23c4c5ccc(O)c4O[C@H]2C(=O)CC[C@@]3(O)[C@H]1C5 [naloxone]
[2]
  opioids-induced angiogenesis and angiogenesis by itself: neither antagonizes opioids-induced angiogenesis nor induces angiogenesis by itself

## bevacizumab: an anti-VEGF antibody
[3]
  Breast cancer tumor progression index (tumor size × metastasis), Mean: 0.28 fraction of negative control

## pembrolizumab: an anti-PD1 antibody, checkpoint inhibitor
M-001 melanoma cells
  Melanoma tumor progression index (tumor size × metastasis), Mean: 4.83
Zebra fish larvae
  Zebra fish larvae mortality: 63%
[3]
  Breast cancer tumor progression index (tumor size × metastasis), Mean: 0.54 fraction of negative control
